Test results published in US20100144660A1, “USE OF N,N-DIETHYL-2-[-4-(PHENYLMETHYL)-PHENOXY]ETHANAMINE MONOHYDROCHLORIDE (DPPE) IN CANCER THEREAPY” (YM Biosciences Inc., priority 2001, published 2010).
Read-outs that look alike come from different tables or passages of the source.

How the values were obtained:
[1] = test system: normal and malignant cells; settings: cited from earlier work
[2] = cited from earlier work
[3] = test system: breast cancer patients who relapsed following surgery; test: Phase III clinical trial: DPPE and doxorubicin versus doxorubicin alone, survival analysis by subgroup; type: in vivo, human; settings: for median survival time (MST) / one year survival: duration 6-36 month, prior chemotherapy group (FIG. 27), DPPE added to doxorubicin versus doxorubicin alone; for 1 yr (one year survival) / MST (median survival time): only ER known
Experimental: Two arms of treatment were involved in this trial. Patients were randomly selected to participate in either arm. In one arm, patients were treated with DPPE and doxorubicin, in the other arm patients were treated with doxorubicin alone.
In the trial, patients were permitted to stay on doxorubicin for a maximum of about 7 cycles (5 months). […] DPPE was administered to patients in the amount of 6 mg/kg (or 240 mg/M^2) over 80 minutes, with the concurrent administration of doxorubicin over the last 20 minutes at a […] of 60-90 mg/M^2.
The patients in the trial were assigned to subgroups based on duration, i.e. the length of time between the initial diagnosis of breast cancer and the appearance of advanced disease. The subgroups were: (i) less than or equal to 6 months, (ii) between 6 months and 36 months and (iii) more than 36 months.
For this subgroup analysis, the 3 duration subgroups (<6 m, 6-36 m and >36 m) are further subdivided into groups of patients that (i) have undergone prior chemotherapy, and (ii) have not undergone prior chemotherapy.
For this analysis, the patients in the trial were divided into subgroups based on Eastern Cooperative Oncology Group (ECOG) Performance Status (PS).
In this example, the patients were divided into subgroups of those patients that originated from Eastern Europe and those that originated mainly from Western Europe and North America.

[4] = test system: intracellular histamine receptors; settings: cited from earlier work
[5] = test system: MCF-7 breast cancer cells; settings: ER−/AEBS+ or ER+/AEBS+ cells; cited from earlier work
[6] = test system: hormone-unresponsive metastatic prostate cancer; settings: intravenous infusion of DPPE over approximately one hour prior to cyclophosphamide; cited from earlier work
[7] = competition assays; cited from earlier work
[8] = Geographically restricted subset
[9] = Geographically restricted subset (Eastern Europe excluded)
[10] = duration <36 m, ER+ (known ER status)
[11] = duration <36 m, ER− (known ER status)
[12] = duration >36 M, ER+ (known ER status)
[13] = duration >36 m, ER− (known ER status)
[14] = response PD (progressive disease)

For `CCN(CC)CCOc1ccc(Cc2ccccc2)cc1.Cl` [DPPE, N,N-diethyl-2-[-4-(phenylmethyl)-phenoxy]ethanamine monohydrochloride], the “cell proliferation in vivo” value ([1]; animal model) is listed as “inhibit normal cell proliferation while promoting malignant cell proliferation”, the “interaction with doxorubicin (Adriamycin)” value ([1]; tumour-bearing animals treated concurrently with DPPE) is listed as “act synergistically” and the toxicity ([2]; 4 mg/kg (160 mg/M^2) over 1 hour intravenously) is listed as “non-toxic”. The clinical side effects ([2]; 8 mg/M^2 over 24 to 72 hours) was “do not result in clinical side effects”, the toxicity ([2]; 240 mg/M^2 over 1 hour) was “may result in CNS toxicity” and the “Survival by response: PD, comparison of arms” value ([3]; Geographically restricted subset, DPPE/DOX versus DOX) was “DPPE a little better at first”. The “survival benefit from the addition of DPPE” value ([3]; duration 6-36 m, no prior chemotherapy group) was “little, if any, benefit”, the “median survival time (MST)” value [3] was greater than 17.5 months and the one year survival [3] was “under 70%”. For the same molecule, the “survival benefit from the addition of DPPE” value ([3]; duration >36 m, prior and no prior chemotherapy subgroups) was “neither of the subgroups show any benefit”, the “antagonism of intracellular histamine receptors” value [4] was “potent antagonist” and the “in vitro growth of MCF-7 breast cancer cells” value [5] was “inhibit”. The “effect on anti-cancer activity and toxicity of cyclophosphamide” value [6] was “potentiate the anti-cancer activity and ameliorate the toxicity”.
For `CCN(CC)CCOc1ccc(C(=O)c2ccc(F)cc2)cc1` [DFPE, N,N-diethyl-2-[4-(4′-fluorophenone)-phenoxy]ethanamine], the “potency compared to DPPE” value [7] is given as “greater potency”.
`COc1cccc2c1C(=O)c1c(O)c3c(c(O)c1C2=O)C[C@@](O)(C(=O)CO)C[C@@H]3O[C@H]1C[C@H](N)[C@H](O)[C@H](C)O1` [DOX, doxorubicin] showed a 1 yr survival ([3]; ECOG PS 0) of 75%, an MST ([3]; ECOG PS 0) of 20.3 m and a 1 yr survival ([3]; ECOG PS 1) of 48%. The MST ([3]; ECOG PS 1) was 11.7 m, the 1 yr survival ([3]; ECOG PS 2) was 33% and the MST ([3]; ECOG PS 2) was 5.9 m. The “1 yr (one year survival)” value ([3]; ER+ patients) was 62%, the “MST (median survival time)” value ([3]; ER+ patients) was 16.5 m and the “1 yr (one year survival)” value ([3]; ER− patients) was 36%. For the same molecule, the “MST (median survival time)” value ([3]; ER− patients) was 9.5 m, the “Survival by ECOG = 0, 1 yr” value [3, 8] was 63% and the “Survival by ECOG = 0, MST” value [3, 8] was 16.5 m. For the same molecule, the “Survival by ECOG = 1, 1 yr” value [3, 8] was 42%, the “Survival by ECOG = 1, MST” value [3, 8] was 11.5 m and the “Survival by ER status ER−, 1 yr” value [3, 8] was 39%. The “Survival by ER status ER−, MST” value [3, 8] was 9 m, the “Survival by ER+, 1 yr” value [3, 8] was 55% and the “Survival by ER+, MST” value [3, 8] was 15.5 m. For the same molecule, the “Survival by duration: 6-36 m, MST” value [3, 8] was 9 m, the “Survival by response: CR/PR, 1 yr” value [3, 8] was 62% and the “Survival by response: SD, 1 yr” value [3, 8] was 53%. For the same molecule, the “Survival by response: SD, MST” value [3, 8] was 12 m, the “Survival for ER+ vs ER− within the arm” value [3, 8] was “ER+ considerably better than ER−” and the “Overall survival 1 yr” value [3, 9] was 50%. The “Overall survival MST” value [3, 9] was 12 m, the “Overall survival 1 yr” value ([3]; Whole trial (Table 10)) was 60% and the “Overall survival MST” value ([3]; Whole trial (Table 10)) was 15.6 m. For the same molecule, the “Survival by ECOG = 0, 1 yr” value ([3]; Whole trial (Table 10)) was 75%, the “Survival by ECOG = 0, MST” value ([3]; Whole trial (Table 10)) was 20.3 m and the “Survival by ECOG = 1, 1 yr” value ([3]; Whole trial (Table 10)) was 48%. The “Survival by ECOG = 1, MST” value ([3]; Whole trial (Table 10)) was 11.7 m, the “Survival by ER status ER−, 1 yr” value ([3]; Whole trial (Table 10)) was 36% and the “Survival by ER status ER−, MST” value ([3]; Whole trial (Table 10)) was 9.5 m. For the same molecule, the “Survival by ER+, 1 yr” value ([3]; Whole trial (Table 10)) was 62%, the “Survival by ER+, MST” value ([3]; Whole trial (Table 10)) was 16 m and the “Survival by duration: 6-36 m, MST” value ([3]; Whole trial (Table 10)) was 11.5 m. For the same molecule, the “Survival by response: CR/PR, 1 yr” value ([3]; Whole trial (Table 10)) was 74%, the “Survival by response: SD, 1 yr” value ([3]; Whole trial (Table 10)) was 59% and the “Survival by response: SD, MST” value ([3]; Whole trial (Table 10)) was 17 m. The “Survival for ER+ vs ER− within the arm” value ([3]; Whole trial (Table 10)) was “ER+ considerably better than ER−”, the “lived on average (survival)” value ([3]; all breast cancer patients of the trial) was “fifteen” and the “median survival time (MST)” value [3] was 10.7 months. For the same molecule, the one year survival [3] was 40%, the 1 yr survival ([3]; duration <6 m) was 56% and the MST ([3]; duration <6 m) was 15 m. It also gave a 1 yr survival [3, 10] of 52%, an MST [3, 10] of 15.5 m and a 1 yr survival [3, 11] of 36%. It also gave an MST [3, 11] of 9.5 m, a 1 yr survival ([3]; duration >6 but <36 m) of 45% and an MST ([3]; duration >6 but <36 m) of 11.5 m. It also gave a 1 yr survival [3, 12] of 82%, an MST [3, 12] of 18 m and a 1 yr survival ([3]; duration >36 m) of 77%. The MST ([3]; duration >36 m) was 20.3 m, the 1 yr survival [3, 13] was 66% and the MST [3, 13] was 12 m. The “median survival time (FIG. 22)” value ([3]; duration >36 months) was 28.6356, the “median survival time (FIG. 21)” value ([3]; duration of ≦36 months) was 12.1973 and the 1 yr survival ([3]; response CR/PR) was 74%. It also gave an MST ([3]; response CR/PR) of 28.5 m, a 1 yr survival [3, 14] of 34% and an MST [3, 14] of 10.5 m. It also gave a 1 yr survival ([3]; response SD (stable disease)) of 59% and an MST ([3]; response SD (stable disease)) of 17 m.
